In patent US20170158735A1, “METHOD FOR PRODUCING A RECOMBINANT PEPTIDE AND RESULTANT PEPTIDE” ("IVIX" Ltd., priority 2012, published 2017):
Ends that are not written are not given here.

System: sexual behavior of female rats
Experiment: Lordosis test: sexual behavior of ovariectomized hormonally stimulated female rats with a sexually active male
Format: in vivo, rat
Conditions: for Percentage of lordoses / Number of acts of proceptive behavior: ovariectomized hormonally stimulated female rats, progesterone 0.5 mg/rat, test product 100 μg/rat; for Percentage of lordoses: negative control 0.73 ± 0.12; for Number of acts of proceptive behavior: negative control 14 ± 4; for Effect on sexual motivation / reproductive- and sexual-function stimulating activity (in words): lordosis model, female rats, 100 μg/rat
Procedure: Sexual behavior was recorded in ovariectomized hormonally stimulated females in direct contact with the sexually active male, or when such a contact was impossible. […]
Sexual behavior was recorded in ovariectomized hormonally stimulated females in direct contact with the sexually active male, or when such a contact was impossible.

Substance	Percentage of lordoses (Table 4 / Example 8)	Number of acts of proceptive behavior (Table 4 / Example 8) [acts]	Percentage of lordoses (Table 5 / Example 9)	Effect on sexual motivation / reproductive- and sexual-function stimulating activity (in words)
Arg-Pro-Gly-Pro (RPGP)	0.69 ± 0.14	15 ± 4	–	–
Pro-Arg-Pro-Gly-Pro (PRPGP)	0.73 ± 0.14	14 ± 6	–	–
Pro-Gly-Pro (PGP)	0.74 ± 0.09	13 ± 5	–	–
TKPRPF	–	–	0.94 ± 0.14	intensification of sexual motivation
Thr-Lys-Pro (TKP)	0.97±0.12	29±6	0.96 ± 0.12	intensification of sexual motivation
Thr-Lys-Pro-Arg (TKPR)	–	–	–	lack of sexual motivation effect
Thr-Lys-Pro-Arg-Pro (TKPRP)	–	–	0.99 ± 0.09	intensification of sexual motivation
Thr-Lys-Pro-Phe (TKPF)	–	–	–	lack of sexual motivation effect
